According to patent US4853467A, “Nitrogen containing derivatives of epipodophyllotoxin glucosides” (Bristol-Myers Company, priority 1987, dated 1989):
In brackets after ≈: the same amount, converted by molar mass.

How the values were obtained:
[1] = tested on: P388 murine leukemia; assay: P388 Leukemia, antitumor activity against murine P388 leukemia; assay type: in vivo, murine (female CDF1 mice); conditions: i.p. on days 5 and 8; 10^6 P388 cells i.p.; maximum effect over doses; >=125 considered significant; etoposide values in parentheses are positive control in same experiment
Experimental: Female CDF1 mice were implanted intraperitoneally with a tumor inoculum of 10^6 ascites cells of P388 murine leukemia and treated with various doses of a test compound; four mice were used for each dose level and ten were used as saline-treated control. The compounds were administered by intraperitoneal injection on days 5 and 8 (day 1 being the day of tumor implantation). Antitumor activity was expressed as % T/C which is the ratio of the median survival time (MST) of drug-treated group to the MST of saline-treated control group. A compound showing a % T/C value of 125 or greater is generally considered to have significant antitumor activity in the P388 test. The experiment lasted 31 days at the end of which time the number of survivors was noted. Table I presents the results of the above-described evaluation; only the maximum % T/C and the dose showing the maximum effect are reported.

[2] = tested on: B16-F10 murine melanoma; assay: In vitro cytotoxicity assay, B16-F10 murine melanoma; assay type: cell-based; conditions: two values per compound, four-fold serial dilution; for In vitro cytotoxicity IC50, B-16-F10: B16-F10 murine melanoma; for IC50: Mus musculus, B16-F10, B16-F10 murine melanoma, read-out: In vitro cytotoxicity IC50, B-16-F10
Experimental: (§1) The in vitro cytotoxicity assay involved growing various mammalian tumor cells, including human tumor cells, on microtitre plates employing established tissue culture methods. The concentration of each compound required to inhibit cell growth by 50% (IC50) was then determined by a four-fold serial dilution technique. The validity of the method has been supported by a report published in the "Proceedings of the American Association for Cancer Research", 1984, 25:1891 (Abst. No. 328). Tumor cells of the following types were employed for each compound tested: B16-F10 murine melanoma; Moser human colon; SW900 human lung and three human colon tumor cell lines namely HCT-116, HCT-VM, and HCT-VP, the latter two being resistant to teniposide (VM) and etoposide (VP), respectively. IC50 values less than 500 μg/ml are a positive indicator of antitumor activity. Table II presents IC50 values of various compounds of the present invention against the aforementioned cell lines.

[3] = tested on: HCT-116; assay: In vitro cytotoxicity assay, HCT-116 human colon tumor; assay type: cell-based; conditions: two values per compound, four-fold serial dilution; for In vitro cytotoxicity IC50, HCT-116: HCT-116 human colon; for IC50: Homo sapiens, HCT-116, HCT-116 human colon
Experimental: as §1

[4] = tested on: HCT/VM34; assay: In vitro cytotoxicity assay, HCT/VM34 teniposide-resistant human colon tumor; assay type: cell-based; conditions: HCT/VM34, resistant to teniposide, two values per compound, four-fold serial dilution; for IC50: Homo sapiens
Experimental: as §1

[5] = tested on: HCT/VP35; assay: In vitro cytotoxicity assay, HCT/VP35 etoposide-resistant human colon tumor; assay type: cell-based; conditions: two values per compound, four-fold serial dilution; for In vitro cytotoxicity IC50, HCT/VP35: HCT/VP35, resistant to etoposide; for IC50: Homo sapiens, HCT/VP35, HCT/VP35, resistant to etoposide
Experimental: as §1

[6] = tested on: Moser human colon; assay: In vitro cytotoxicity assay, Moser human colon; assay type: cell-based; conditions: two values per compound, four-fold serial dilution; for IC50: Homo sapiens
Experimental: as §1

[7] = tested on: SW900 human lung; assay: In vitro cytotoxicity assay, SW900 human lung; assay type: cell-based; conditions: two values per compound, four-fold serial dilution; for IC50: Homo sapiens, SW900, SW900 human lung; for In vitro cytotoxicity IC50, SW900: SW900 human lung
Experimental: as §1

[8] = tested on: small cell lung cancer, non-lymphocytic leukemia, and non-seminomatous testicular cancer; conditions: AMA Drug Evaluation, 5th Edition, 1983; cited from earlier work

Structure (SMILES) | Max % T/C (ratio of median survival time of drug-treated group to saline-treated control group) [1] [%] | In vitro cytotoxicity IC50, B-16-F10 [2] [µg/mL] | IC50 [2] [µg/mL] | In vitro cytotoxicity IC50, HCT-116 [3] [µg/mL] | IC50 [3] [µg/mL] | In vitro cytotoxicity IC50, HCT/VM34 [4] [µg/mL] | IC50 [4] [µg/mL] | In vitro cytotoxicity IC50, HCT/VP35 [5] [µg/mL] | IC50 [5] [µg/mL] | IC50 [6] [µg/mL] | IC50 [7] [µg/mL] | activity in the treatment of cancers [8] | In vitro cytotoxicity IC50, MOSER [6] [µg/mL] | In vitro cytotoxicity IC50, SW900 [7] [µg/mL]
COc1cc([C@@H]2c3cc4c(cc3[C@@H](O[C@@H]3O[C@@H]5CO[C@@H](C)O[C@H]5[C@H](O)[C@H]3O)[C@H]3COC(=O)[C@H]23)OCO4)cc(N=Cc2cccc([N+](=O)[O-])c2)c1O [Example 22, 3'-Desmethoxy-3'-[[(3-nitro)phenyl]methylene]amino etoposide] | 235 | 14.1 | 10.9 (≈ 15.4 µM) | 13.3 | 17 (≈ 24.1 µM) | 16.2 | 21 (≈ 29.7 µM) | 43 | 36 (≈ 50.9 µM) | > 250 | > 250 |  |  | 
COc1cc([C@@H]2c3cc4c(cc3[C@@H](O[C@@H]3O[C@@H]5CO[C@@H](C)O[C@H]5[C@H](O)[C@H]3O)[C@H]3COC(=O)[C@H]23)OCO4)cc(OC)c1O [etoposide] |  |  |  |  |  |  |  |  |  |  |  | active in the treatment of a variety of cancers including small cell lung cancer, non-lymphocytic leukemia, and non-seminomatous testicular cancer |  | 
COc1cc([C@@H]2c3cc4c(cc3[C@@H](O[C@@H]3O[C@@H]5CO[C@@H](c6cccs6)O[C@H]5[C@H](O)[C@H]3O)[C@H]3COC(=O)[C@H]23)OCO4)cc(OC)c1O [teniposide] |  |  |  |  |  |  |  |  |  |  |  | active in the treatment of a variety of cancers including small cell lung cancer, non-lymphocytic leukemia, and non-seminomatous testicular cancer |  | 
CNc1cc([C@@H]2c3cc4c(cc3[C@@H](O[C@@H]3O[C@@H]5CO[C@@H](C)O[C@H]5[C@H](O)[C@H]3O)[C@H]3COC(=O)[C@H]23)OCO4)cc(OC)c1O [Example 4, 3'-Desmethoxy-3'-methylamine etoposide] | 170 | 17.9 | 13.9 (≈ 23.7 µM) | 15.7 | 16.2 (≈ 27.6 µM) | 33 | 23 (≈ 39.1 µM) | 47 | 40 (≈ 68.1 µM) | 56 (≈ 95.3 µM) | 63 (≈ 107 µM) |  | 49 | 
COc1cc([C@@H]2c3cc4c(cc3[C@@H](O[C@@H]3O[C@@H]5CO[C@@H](C)O[C@H]5[C@H](O)[C@H]3O)[C@H]3COC(=O)[C@H]23)OCO4)cc(NCN2C(=O)CCC2=O)c1O [Example 13, 3'-Desmethoxy-3'-[(N-succinimido)methyl]amino etoposide] | 230 | 8.7 | 5.5 (≈ 8.03 µM) | 4.1 | 3.6 (≈ 5.26 µM) | 3.9 | 2.7 (≈ 3.94 µM) | 3.3 | 3.4 (≈ 4.97 µM) | 12.3 (≈ 18 µM) | 11 (≈ 16.1 µM) |  | 12.1 | 8.6
COc1cc([C@@H]2c3cc4c(cc3[C@@H](O[C@@H]3O[C@@H]5CO[C@@H](C)O[C@H]5[C@H](O)[C@H]3O)[C@H]3COC(=O)[C@H]23)OCO4)cc(N=Cc2ccsc2)c1O [Example 17, 3'-Desmethyoxy-3'-[(3-thienyl)methylene]amino etoposide] | 195 | 8.4 | 6.7 (≈ 10 µM) | 10.1 | 12.3 (≈ 18.4 µM) | 24 | 23 (≈ 34.4 µM) | 44 | 31 (≈ 46.4 µM) | 45 (≈ 67.4 µM) | 22 (≈ 32.9 µM) |  |  | 44
C[C@@H]1OC[C@H]2O[C@@H](O[C@@H]3c4cc5c(cc4[C@@H](C4=CC(=O)C(=O)C(NC(=O)NCCCl)=C4)[C@H]4C(=O)OC[C@@H]43)OCO5)[C@H](O)[C@@H](O)[C@@H]2O1 [Example 29, 5'-Desmethoxy-5'-[[(2-chloroethyl)amino]carbonyl]amino etoposide 3',4'-ortho-quinone] | 135 | 38 | 39 (≈ 58.8 µM) | 46 | 53 (≈ 79.9 µM) | 53 | 55 (≈ 83 µM) | 79 | 77 (≈ 116 µM) | 71 (≈ 107 µM) | > 188 |  | 77 | 
COc1cc([C@@H]2c3cc4c(cc3[C@@H](O[C@@H]3O[C@@H]5CO[C@@H](C)O[C@H]5[C@H](O)[C@H]3O)[C@H]3COC(=O)[C@H]23)OCO4)cc(NC(=O)NCc2ccccc2)c1O [Example 11, 3'-Desmethoxy-3'-([[phenylmethyl)amino]carbonyl]amino etoposide] | 110 | 40 | 44 (≈ 62.3 µM) | 98 | 58 (≈ 82.1 µM) | 26 | 24 (≈ 34 µM) | 31 | 30 (≈ 42.5 µM) | 89 (≈ 126 µM) | 74 (≈ 105 µM) |  | 93 | 84
COc1cc([C@@H]2c3cc4c(cc3[C@@H](O[C@@H]3O[C@@H]5CO[C@@H](C)O[C@H]5[C@H](O)[C@H]3O)[C@H]3COC(=O)[C@H]23)OCO4)cc([N+](=O)[O-])c1O [Example 24, 3'-Desmethoxy-3'-nitro etoposide] | > 140 | 50 | 41 (≈ 67.9 µM) | 53 | 43 (≈ 71.2 µM) | 82 | 56 (≈ 92.8 µM) |  |  | 92 (≈ 152 µM) | 66 (≈ 109 µM) |  | 84 | 90
